The values that follow come from ChEMBL document CHEMBL1201862, “PubChem BioAssay data set” (2004).

The structures appear in SMILES notation.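 Values below derive from 48-hour exposures of cells grown in 96-well plates, with endpoints linearly interpolated between the two concentrations bracketing the appropriate inhibition level. The concentration for 50% growth inhibition is given as GI50.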 Active and inactive are the calls of the source. No stated cut-off is given here; in the data, active = GI50 up to about 1.1 µM and inactive = higher. Where only a bound is given, the exact number is not on record here.

Common to all, as to assay: NCI-60 cell line screen, 48 h
In assay [1] the test system is CCRF-CEM.
In assay [2] the test system is NCI-H226.
Assay [3] deals with T47D.
Assay [4] relates to UACC-257.
Assay [5] relates to MDA-N.
The subject of assay [6] is TK-10.
In assay [7] the test system is Malme-3M.
Assay [8] relates to UACC-62.
Assay [9] concerns U-251.
Assay [10] relates to 786-0.
In assay [11] the test system is SK-MEL-2.
Assay [12] concerns COLO 205.
For assay [13], the system named is RXF 393.
The test system of assay [14] is NCI-H23.
Assay [15] has as its system SW-620.
Assay [16] relates to SK-MEL-5.
For assay [17], the system named is BT-549.
Assay [18] concerns SNB-19.

For `Nc1nc(SCc2ccccn2)c2ncn(C3CCCC3)c2n1`, the GI50 in [1] was > 100 µM (inactive); in assay [2] it was > 100 µM (inactive); in assay [3], 76 µM (inactive); in assay [4], > 100 µM (inactive); in assay [5], > 100 µM (inactive); in assay [6], > 100 µM (inactive). Besides, the GI50 is 82 µM (inactive) in [7]; > 100 µM (inactive) in assay [8]; > 100 µM (inactive) in assay [9]; > 100 µM (inactive) in assay [10]; > 100 µM (inactive) in assay [11]; > 100 µM (inactive) in assay [12]. Further, the GI50 in assay [13], in assay [14], in assay [15], in assay [16], in assay [17] and in [18] was > 100 µM (inactive) throughout.

For the molecule `N#C/C=C(/NC(=O)Nc1ccccc1)N1CCCC1`, the GI50 in assay [1] was > 100 µM (inactive); in [2], > 42 µM (inactive); in [3], > 85.1 µM (inactive); in [4], 45.6 µM (inactive); in assay [5] it was > 100 µM (inactive); in assay [6] it was > 36.2 µM (inactive). The GI50 in assay [7] was > 45 µM (inactive); in assay [8], > 82.6 µM (inactive); in assay [9] it was > 36.8 µM (inactive); in assay [10] it was 31.9 µM (inactive); in assay [11] it was > 32.9 µM (inactive); in [12], > 55 µM (inactive). Moreover, the GI50 is > 100 µM (inactive) in assay [13]; > 49.3 µM (inactive) in assay [14]; > 44.2 µM (inactive) in assay [15]; 56.4 µM (inactive) in assay [16]; > 67.5 µM (inactive) in assay [17]; > 25.2 µM (inactive) in assay [18].

In the case of `CCOC(=O)n1c(=O)nc2c3c(ncn21)Oc1c(c(-c2ccccc2)nn1-c1ccccc1)C3c1ccc(Cl)cc1` (stereo not given), the GI50 in assay [1] was 1.1 µM (active); in assay [2], 1.63 µM (inactive); in [3] it was 1.77 µM (inactive); in assay [4], 1.8 µM (inactive); in [5] it was 1.65 µM (inactive); in assay [6], 1.7 µM (inactive). The GI50 in [7] was 1.84 µM (inactive); in assay [8] it was 1.7 µM (inactive); in assay [9], 1.69 µM (inactive); in assay [10], 1.52 µM (inactive); in [11] it was 1.84 µM (inactive); in [12], 1.32 µM (inactive). Moreover, the GI50 is 1.57 µM (inactive) in [13]; 1.69 µM (inactive) in assay [14]; 1.71 µM (inactive) in [15]; 1.7 µM (inactive) in assay [16]; 1.57 µM (inactive) in [17]; 1.61 µM (inactive) in assay [18].

As for `C/C=C/[C@@H]1O[C@H](CC#C[Si](C)(C)C)[C@@]2(C=O)C(C)=CC[C@H](C(C)C)[C@@H]12`, the GI50 is 2.41 µM (inactive) in assay [1]; 20.3 µM (inactive) in [2]; 30.8 µM (inactive) in assay [3]; 12.9 µM (inactive) in [4]; 19.4 µM (inactive) in [5]; 15 µM (inactive) in assay [6]. The GI50 was 19 µM (inactive) in assay [7]; 15.8 µM (inactive) in assay [8]; 17.3 µM (inactive) in assay [9]; 13.7 µM (inactive) in assay [10]; 16.5 µM (inactive) in assay [11]; 21.5 µM (inactive) in assay [12]. For the same molecule, the GI50 in assay [13] was 18 µM (inactive); in [14], 22.2 µM (inactive); in assay [15], 23.2 µM (inactive); in [16], 17.6 µM (inactive); in assay [17], 22.4 µM (inactive); in assay [18], 23.8 µM (inactive).

Regarding `CCOC1CCN(C(=O)c2ccccc2)O1` (stereo not given), the GI50 in [1], in assay [2], in [3], in [4], in assay [5] and in [6] was > 10 µM (inactive) throughout. The GI50 in [7], in [10], in [11], in assay [12], in assay [13] and in assay [14] was > 10 µM (inactive) each time. Also, the GI50 in [15], in assay [16], in assay [17] and in assay [18] was > 10 µM (inactive) throughout.

`O=C1CSC(c2ccccc2O)N1c1ccc(-n2c(-c3ccccc3)nc3ccccc3c2=O)cc1` (stereo not given): the GI50 is 14.7 µM (inactive) in assay [1]; 25 µM (inactive) in assay [2]; 14.9 µM (inactive) in [3]; 26.7 µM (inactive) in [4]; 28.2 µM (inactive) in [5]; 48.2 µM (inactive) in assay [6]. Also, the GI50 in [7] is 22.2 µM (inactive); in [8], 21.5 µM (inactive); in assay [9], 5.7 µM (inactive); in [10], 20.1 µM (inactive); in assay [11], 24.3 µM (inactive); in assay [12] it was 30.3 µM (inactive). Also, the GI50 was 42.7 µM (inactive) in [13]; 31.6 µM (inactive) in assay [14]; 29.7 µM (inactive) in assay [15]; 16.1 µM (inactive) in assay [16]; 21.6 µM (inactive) in assay [17]; 27.3 µM (inactive) in [18].

Regarding `NNC(=O)c1cc(=O)[nH][nH]1`, the GI50 in assay [1], in assay [2], in [3], in [4], in assay [5] and in assay [6] was > 100 µM (inactive) in each case. For the same molecule, the GI50 in [7], in [8], in assay [9], in assay [10], in [11] and in assay [12] was > 100 µM (inactive) throughout. For the same molecule, the GI50 in assay [13], in [14], in assay [15], in assay [16], in assay [17] and in [18] was > 100 µM (inactive) in each case.

On to `COc1ccc(C(SC2C(O)C(CO)OC2n2ccc(=O)[nH]c2=O)(c2ccccc2)c2ccc(OC)cc2)cc1` (stereo not given), for which the GI50 in assay [1] is 23.8 µM (inactive); in assay [2] it was 16.6 µM (inactive); in assay [3], 16.6 µM (inactive); in assay [4] it was 16.1 µM (inactive); in [5], 9.66 µM (inactive); in assay [6], 25.4 µM (inactive). For the same molecule, the GI50 in assay [7] is 20.7 µM (inactive); in [8] it was 15.9 µM (inactive); in assay [9] it was 13.9 µM (inactive); in assay [10], 16.3 µM (inactive); in assay [11], 15.1 µM (inactive); in assay [12], 17.7 µM (inactive). For the same molecule, the GI50 is 18.1 µM (inactive) in assay [13]; 17.7 µM (inactive) in assay [14]; 22.2 µM (inactive) in assay [15]; 14.7 µM (inactive) in assay [16]; 16.6 µM (inactive) in assay [17]; 12.4 µM (inactive) in [18].

Consider `NC1=C(Cl)C(=O)c2c(O)ccc(O)c2C1=O`, for which the GI50 is 4.09 µM (inactive) in assay [1]; 11.6 µM (inactive) in [2]; 7.24 µM (inactive) in [3]; 1.6 µM (inactive) in assay [4]; 1.77 µM (inactive) in assay [5]; 15.2 µM (inactive) in assay [6]. The GI50 in assay [7] is 0.279 µM (active); in assay [8], 1.59 µM (inactive); in [9], 4.12 µM (inactive); in assay [10], 8.93 µM (inactive); in assay [11], 4.72 µM (inactive); in assay [12], 1.69 µM (inactive). Besides, the GI50 in [13] is 7.45 µM (inactive); in assay [14] it was 2.05 µM (inactive); in [15] it was 3.15 µM (inactive); in assay [16] it was 0.735 µM (active); in assay [17], 1.93 µM (inactive); in assay [18] it was 3.89 µM (inactive).

As to `O=C(CSc1nc2ccccc2c(=O)n1-c1ccccc1)N/N=C1\C(=O)Nc2ccc(Br)cc21`, the GI50 in assay [1] is 5.62 µM (inactive); in assay [2] it was 12.1 µM (inactive); in assay [3], 4.92 µM (inactive); in assay [4], 5.94 µM (inactive); in assay [5], 3.01 µM (inactive); in assay [6] it was 2.39 µM (inactive). Besides, the GI50 was 2.26 µM (inactive) in assay [7]; 4.44 µM (inactive) in assay [8]; 1.82 µM (inactive) in assay [9]; 1.95 µM (inactive) in assay [10]; 9.53 µM (inactive) in assay [11]; 3.74 µM (inactive) in assay [12]. For the same molecule, the GI50 in [13] was 2.62 µM (inactive); in [14], 3.42 µM (inactive); in [15], 3.37 µM (inactive); in assay [16], 2.58 µM (inactive); in assay [17], 10.3 µM (inactive); in assay [18], 3.03 µM (inactive).

For `NC(=O)c1cc2ccccc2o/c1=N/c1ccccc1`, the GI50 in assay [1], in assay [2], in assay [3], in assay [4], in assay [5] and in assay [7] was > 100 µM (inactive) throughout. For the same molecule, the GI50 in assay [8], in [9], in [10], in assay [11], in assay [12] and in [13] was > 100 µM (inactive) throughout. The GI50 in assay [14], in [15], in assay [16], in assay [17] and in assay [18] was > 100 µM (inactive) throughout.
